Reference: the NIST ThermoML archive (doi:10.1016/j.jct.2006.03.016)
± gives the expanded uncertainty stated by the source.

Assay: molar heat capacity at constant pressure
Conditions: 101.33 kPa, Crystal, Small (less than 1 g) adiabatic calorimetry

[Cu] [copper]
Conditions	molar heat capacity at constant pressure [J/K/mol]
14.2 K	0.1027 ± 0.017
15.68 K	0.2097 ± 0.018
16.38 K	0.2384 ± 0.018
16.77 K	0.2351 ± 0.018
17.8 K	0.3079 ± 0.019
19.33 K	0.4049 ± 0.019
21 K	0.5507 ± 0.021
22.76 K	0.7024 ± 0.022
24.89 K	0.9364 ± 0.023
27.19 K	1.257 ± 0.025
29.54 K	1.621 ± 0.027
32.17 K	2.071 ± 0.086
35.07 K	2.634 ± 0.088
35.81 K	2.796 ± 0.088
38.36 K	3.344 ± 0.091
38.95 K	3.483 ± 0.091
42.31 K	4.276 ± 0.094
46.05 K	5.166 ± 0.098
50.21 K	6.197 ± 0.11
54.08 K	7.128 ± 0.11
54.62 K	7.296 ± 0.11
56.1 K	7.632 ± 0.12
58.53 K	8.226 ± 0.12
59.11 K	8.36 ± 0.12
59.5 K	8.478 ± 0.12
63.71 K	9.435 ± 0.13
63.87 K	9.508 ± 0.13
68.55 K	10.6 ± 0.14
73.28 K	11.6 ± 0.14
78.07 K	12.55 ± 0.15
82.91 K	13.41 ± 0.16
87.8 K	14.23 ± 0.17
92.71 K	15 ± 0.22
93.13 K	15.06 ± 0.22
97.66 K	15.72 ± 0.22
97.7 K	15.7 ± 0.22
102.69 K	16.38 ± 0.23
107.7 K	16.96 ± 0.23
112.73 K	17.49 ± 0.24
117.78 K	18.01 ± 0.24
122.84 K	18.49 ± 0.24
127.92 K	18.95 ± 0.25
133 K	19.37 ± 0.25
138.1 K	19.74 ± 0.25
143.21 K	20.06 ± 0.26
148.33 K	20.36 ± 0.26
151.4 K	20.55 ± 0.26
153.45 K	20.66 ± 0.26
156.5 K	20.85 ± 0.26
158.58 K	20.95 ± 0.26
161.61 K	21.11 ± 0.26
166.74 K	21.37 ± 0.27
171.89 K	21.59 ± 0.27
177.04 K	21.77 ± 0.27
182.2 K	21.94 ± 0.27
187.36 K	22.15 ± 0.27
192.53 K	22.25 ± 0.27
197.69 K	22.35 ± 0.27
202.86 K	22.6 ± 0.27
203.62 K	22.66 ± 0.27
208.02 K	22.73 ± 0.28
208.7 K	22.81 ± 0.28
213.88 K	22.96 ± 0.28
219.05 K	23.11 ± 0.28
224.22 K	23.25 ± 0.28
229.39 K	23.33 ± 0.28
234.57 K	23.45 ± 0.28
239.76 K	23.52 ± 0.28
244.94 K	23.6 ± 0.28
247.71 K	23.62 ± 0.28
250.12 K	23.7 ± 0.28
253.15 K	23.76 ± 0.28
255.31 K	23.79 ± 0.28
261.84 K	23.83 ± 0.28
270.43 K	24.07 ± 0.28
275.79 K	24.13 ± 0.28
280.97 K	24.2 ± 0.29
286.16 K	24.27 ± 0.29
291.35 K	24.32 ± 0.29
296.54 K	24.39 ± 0.29
301.73 K	24.51 ± 0.29
306.93 K	24.55 ± 0.29
312.11 K	24.54 ± 0.29
317.29 K	24.59 ± 0.29
322.48 K	24.64 ± 0.29
327.67 K	24.69 ± 0.29
332.85 K	24.81 ± 0.29
338.04 K	24.86 ± 0.29
343.25 K	24.88 ± 0.29
348.43 K	25.04 ± 0.29
